Data from PMC3433255 (Journal of medicinal chemistry, 2012).

How the values were obtained:
[1] = physiological conditions, 37 °C and pH 7; cited from earlier work
[2] = test system: MCF-7 breast cancer cells; assay: Growth inhibition, 3 h treatment; format: cell-based, human; conditions: MCF-7, 3 h treatment followed by 3 – 4 days of growth; outside the concentration range; average of at least six measurements

SMILES	half-life of hydrolysis to dox [1]	IC50 [2] [log M]
COc1cccc2c1C(=O)c1c(O)c3c(c(O)c1C2=O)C[C@@](O)(C(=O)CO)C[C@@H]3O[C@H]1C[C@@H]2NCO[C@@H]2[C@H](C)O1 [doxaz, doxazolidine]	approximately 3 min	
COc1cccc2c1C(=O)c1c(O)c3c(c(O)c1C2=O)C[C@@](O)(C(=O)CO)C[C@@H]3O[C@H]1C[C@H](NC(=O)OCc2ccc(NC(=O)[C@H](CCCCN)NC(=O)[C@H](Cc3ccccc3)NC(=O)[C@@H](C)N)cc2)[C@H](O)[C@H](C)O1.O=P(O)(O)O [aFK-Dox, N-(N-(D-alanyl-L-phenylalanyl-L-lysyl)-p-aminobenzyloxycarbonyl)-doxorubicin]		> −6
